Assay type in all cases: cell-based
Test [1] deals with HTT mRNA. The test is described as follows: Splicing RT-qPCR assay (THP), Table 2A. To be noted: Table 2A (THP); for AC50: AJ mRNA increase, read-out: HTT AJ (increase in alternative junction mRNA, AC50); for IC50: CJ mRNA decrease, read-out: HTT CJ (decrease in canonical junction mRNA, IC50).
In test [2] the test system is MYB mRNA. The test is described as follows: Splicing RT-qPCR assay (THP), Table 2A. The settings on record: Table 2A (THP); for AC50: AJ mRNA increase, read-out: MYB AJ (increase in alternative junction mRNA, AC50); for IC50: CJ mRNA decrease, read-out: MYB CJ (decrease in canonical junction mRNA, IC50).
The test system of test [3] is HTT mRNA. Put plainly: Gene panel canonical junction qPCR assay, decrease in CJ mRNA, Table 3. The settings on record: decrease in canonical junction (CJ) mRNA, gene panel qPCR, Table 3. The method in brief:
(§1)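 Eleven-point dose responses from 10 uM final, 24 h, DMSO ≤0.25%, in A673 or K562 cells. Relative quantification by 2^(−ΔΔCt) against housekeeper and vehicle was converted to percent response over fixed ΔCt windows and fitted to yield IC50.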
(In general: In qPCR the cycle at which signal appears reflects the starting amount.)

The test system of test [4] is MYB mRNA. The description is as above. To be noted: decrease in canonical junction (CJ) mRNA, gene panel qPCR, Table 3. The method in brief: as §1
Test [5] relates to SH-SY5Y (human neuroblastoma) cells. Put plainly: Cell viability, Cell Titer Glo 2.0 assay. The settings on record: read-out: Viability SHSY5Y.3 GI50. The method in brief:
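Following a 72 h incubation (37 °C, 5% CO2, 0.1% DMSO final), compound toxicity toward SH-SY5Y cells was quantified by CellTiter-Glo 2.0.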
On the technique in general: In ATP-based viability assays light output follows the ATP content of the culture.

Where only a bound is given, the exact number is not on record here.

One may read the AC50 as the midpoint of the concentration-response curve, whichever way the signal moves. A word on the IC50: it is the concentration at which inhibition is half-maximal. Usually GI50 stands for the concentration at which growth is held to half of that of the control. With `COc1c(NC(=O)c2c(F)cc(N3CCC(NC4CC4)CC3)c3cn(C)nc23)cc2cn(C)nc2c1F` [Compound 405, 4-[4-(cyclopropylamino)-1-piperidyl]-6-fluoro-N-(7-fluoro-6-methoxy-2-methyl-indazol-5-yl)-2-methyl-indazole-7-carboxamide], the AC50 in the test on HTT mRNA [1] is 0.1 to 1 µM; with MYB mRNA [2], < 0.1 µM. Further, the IC50 with HTT mRNA [1] was 0.1 to 1 µM; in the test with MYB mRNA [2], < 0.1 µM; in the test with HTT mRNA [3] it was 0.1 to 1 µM; in the test on MYB mRNA [4] it was < 0.1 µM. In addition, the GI50 in test [5] is < 0.1 µM.
Consider `CCOc1cc2nc(C)cn2cc1NC(=O)c1c(F)cc(N2CCC(NC3CC3)CC2)c2cn(C)nc12` [Compound 406, 4-[4-(cyclopropylamino)-1-piperidyl]-N-(7-ethoxy-2-methyl-imidazo[1,2-a]pyridin-6-yl)-6-fluoro-2-methyl-indazole-7-carboxamide], for which the AC50 was 1 to 10 µM in the test on HTT mRNA [1] and 0.1 to 1 µM in the test with MYB mRNA [2]. Moreover, the half-maximal inhibitory concentration (IC50) in the test on HTT mRNA [1] is 1 to 10 µM; in the test on MYB mRNA [2], 0.1 to 1 µM; with HTT mRNA [3] it was 1 to 10 µM; in the test with MYB mRNA [4], 0.1 to 1 µM. For the same compound, in test [5], the concentration for 50% growth inhibition (GI50) fell in the range of 0.1 to 1 µM.
`COc1cc2nc(CF)cn2cc1NC(=O)c1c(F)cc(N2CCC(NC3CC3)CC2)c2cn(C)nc12` [Compound 407, [cyclopropyl-[1-[6-fluoro-7-[[2-(fluoromethyl)-7-methoxy-imidazo[1,2-a]-pyridin-6-yl]carbamoyl]-2-methyl-indazol-4-y1]-4-piperidyl]amino] 2,2,2-trifluoroacetate]: the figures for the concentration at half-maximal activity (AC50) in the test on HTT mRNA [1] and in the test with MYB mRNA [2] were > 10 µM and < 0.1 µM, respectively. For the same compound, the 50% inhibitory concentration (IC50) in the test on HTT mRNA [1] was > 10 µM; in the test on MYB mRNA [2], < 0.1 µM; in the test with HTT mRNA [3], > 10 µM; with MYB mRNA [4] it was < 0.1 µM. The concentration for 50% growth inhibition (GI50) in test [5] lay in the range of 1 to 10 µM.
For the compound `Cc1cn2cc(NC(=O)c3c(F)cc(N4CCC(NC5CC5)CC4)c4cn(C)nc34)nc(Oc3ccccn3)c2n1` [Compound 408, 4-[4-(cyclopropylamino)-1-piperidy1]-6-fluoro-2-methyl-N-[2-methyl-8-(2-pyridyloxy)imidazo[1,2-a]-pyrazin-6-yl]indazole-7-carboxamide], the half-maximal activity concentration (AC50) is 0.1 to 1 µM in the test on HTT mRNA [1] and < 0.1 µM in the test on MYB mRNA [2]. In addition, the IC50 in the test on HTT mRNA [1] is 1 to 10 µM; in the test on MYB mRNA [2], < 0.1 µM; in the test on HTT mRNA [3], 1 to 10 µM; in the test with MYB mRNA [4], < 0.1 µM. Besides, the GI50 in test [5] was in the range of 0.1 to 1 µM.
Take `Cc1cn2cc(NC(=O)c3c(F)cc(N4CCC(NC5CC5)CC4)c4cn(C)nc34)cc(Oc3cccnn3)c2n1` [Compound 409]: the AC50 with HTT mRNA [1] is > 10 µM; in the test on MYB mRNA [2], 1 to 10 µM. Also, the concentration for half-maximal inhibition (IC50) with HTT mRNA [1] lay within 1 to 10 µM; in the test on MYB mRNA [2], 0.1 to 1 µM; with HTT mRNA [3], 1 to 10 µM; in the test on MYB mRNA [4], 0.1 to 1 µM. The concentration for 50% growth inhibition (GI50) in test [5] is > 10 µM.
Take `Cc1cn2cc(NC(=O)c3c(F)cc(N4CCC(NC5CC5)CC4)c4cn(C)nc34)cc(Oc3cn[nH]c3)c2n1` [Compound 410, N-(8-((1H-pyrazol-4-yl)oxy)-2-methylimidazo[1,2-a]-pyridin-6-yl)-4-(4-(cyclopropylamino)piperidin-1-yl)-6-fluoro-2-methyl-2H-indazole-7-carboxamide 2,2,2-trifluoroacetate]: the concentration at half-maximal activity (AC50) in the test on HTT mRNA [1] and with MYB mRNA [2] was > 10 µM each time. In addition, the IC50 with HTT mRNA [1], in the test on MYB mRNA [2], in the test with HTT mRNA [3] and in the test on MYB mRNA [4] was > 10 µM each time. Moreover, the GI50 in test [5] was > 10 µM.
For `Cn1cc2c(N3CCC(NC4CC4)CC3)cc(F)c(C(=O)Nc3cccnc3O)c2n1` [Compound 411, 4-[4-(cyclopropylamino)-1-piperidyl]-6-fluoro-N-(2-hydroxy-3-pyridyl)-2-methyl-indazole-7-carboxamide], the AC50 with HTT mRNA [1] and in the test with MYB mRNA [2] was > 10 µM each time. The IC50 with HTT mRNA [1] is 1 to 10 µM; in the test on MYB mRNA [2], > 10 µM; in the test on HTT mRNA [3] it was 1 to 10 µM; in the test with MYB mRNA [4], > 10 µM. In test [5], the GI50 was > 10 µM.
For `COc1ncccc1NC(=O)c1c(F)cc(N2CCC(NC3CC3)CC2)c2cn(C)nc12` [Compound 412, 4-(4-(cyclopropylamino)piperidin-1-yl)-6-fluoro-N-(2-methoxypyridin-3-yl)-2-methyl-2H-indazole-7-carboxamide], the figures for the half-maximal activity concentration (AC50) with HTT mRNA [1] and in the test on MYB mRNA [2] were > 10 µM and 1 to 10 µM, respectively. Further, the concentration for half-maximal inhibition (IC50) in the test on HTT mRNA [1] was > 10 µM; in the test with MYB mRNA [2] it was 1 to 10 µM; in the test with HTT mRNA [3], > 10 µM; in the test with MYB mRNA [4] it was 1 to 10 µM. Moreover, the GI50 in test [5] is 1 to 10 µM.
Consider `COc1nnccc1NC(=O)c1c(F)cc(N2CCC(NC3CC3)CC2)c2cn(C)nc12` [Compound 413, 4-[4-(cyclopropylamino)-1-piperidyl]-6-fluoro-N-(3-methoxypyridazin-4-yl)-2-methyl-indazole-7-carboxamide], for which the values for the AC50 in the test on HTT mRNA [1] and in the test with MYB mRNA [2] were > 10 µM and 1 to 10 µM, respectively. Besides, the IC50 with HTT mRNA [1] was 1 to 10 µM; in the test with MYB mRNA [2], > 10 µM; with HTT mRNA [3], 1 to 10 µM; with MYB mRNA [4], > 10 µM. The 50% growth inhibitory concentration (GI50) in test [5] lay in the range of 1 to 10 µM.
For the compound `COc1ccncc1NC(=O)c1c(F)cc(N2CCC(NC3CC3)CC2)c2cn(C)nc12` [Compound 414, 4-[4-(cyclopropylamino)-1-piperidyl]-6-fluoro-N-(4-methoxy-3-pyridyl)-2-methyl-indazole-7-carboxamide], the AC50 with HTT mRNA [1] and in the test on MYB mRNA [2] was > 10 µM in each case. For the same compound, the 50% inhibitory concentration (IC50) in the test on HTT mRNA [1], in the test on MYB mRNA [2], in the test on HTT mRNA [3] and with MYB mRNA [4] was > 10 µM throughout. In addition, in test [5], the 50% growth inhibitory concentration (GI50) is > 10 µM.
As to `CCOc1cc2nn(C)cc2cc1NC(=O)c1c(F)cc(N2CCC(NC3CC3)CC2)c2cn(C)nc12` [Compound 415, 4-[4-(cyclopropyl-amino)-1-piperidyl]-N-(6-ethoxy-2-methylindazol-5-yl)-6-fluoro-2-methylindazole-7-carboxamide], the figures for the AC50 in the test with HTT mRNA [1] and with MYB mRNA [2] were 0.1 to 1 µM and < 0.1 µM, respectively. In addition, the IC50 in the test on HTT mRNA [1] was 0.1 to 1 µM; in the test on MYB mRNA [2], < 0.1 µM; in the test on HTT mRNA [3], 0.1 to 1 µM; in the test with MYB mRNA [4] it was < 0.1 µM. Besides, the concentration for 50% growth inhibition (GI50) in test [5] lay within 0.1 to 1 µM.
For the compound `Cc1nc(CNS(C)(=O)=O)cn2cc(NC(=O)c3c(F)cc(N4CCC(NC5CC5)CC4)c4cn(C)nc34)nc12` [Compound 416, 4-(4-(cyclopropylamino)-piper-idin-1-yl)-6-fluoro-2-meth-yl-N-(8-methyl-6-(methyl-sulfonamidomethyl)-imidazo[1,2-a]pyrazin-2-yl)-2H-indazole-7-carbox-amide 2,2,2-trifluoroacetate], the concentration at half-maximal activity (AC50) with HTT mRNA [1] and in the test with MYB mRNA [2] was > 10 µM in each case. Besides, the IC50 in the test with HTT mRNA [1], in the test with MYB mRNA [2], with HTT mRNA [3] and in the test with MYB mRNA [4] was > 10 µM in each case. Further, in test [5], the GI50 is > 10 µM.
On to `Cc1cn2cc(NC(=O)c3c(F)cc(N4CCC(NC5CC5)CC4)c4cn(C)nc34)c(Oc3ccccc3)cc2n1` [Compound 417, 4-[4-(cyclopropylamino)-1-piperidyl]-6-fluoro-2-methyl-N-(2-methyl-7-phenoxyimidazo[1,2-a]pyridin-6-yl)-indazole-7-carboxamide], for which the AC50 in the test with HTT mRNA [1] is 1 to 10 µM; with MYB mRNA [2], < 0.1 µM. Also, the IC50 in the test on HTT mRNA [1] was > 10 µM; in the test on MYB mRNA [2], < 0.1 µM; in the test on HTT mRNA [3], > 10 µM; with MYB mRNA [4] it was < 0.1 µM. For the same compound, the 50% growth inhibitory concentration (GI50) in test [5] was 0.1 to 1 µM.

For the origin of these results see patent US20260285853A1, “COMPOUNDS AND METHODS FOR MODULATING SPLICING” (REMIX THERAPEUTICS INC., priority 2023, published 2026).
